In patent publication US9199975B2, “Biaryl imidazole derivatives for regulating CYP17” (Asana Biosciences, LLC, priority 2011, dated 2015):

target: T1, rat CYP17 (Rattus norvegicus, UniProt P11715); experiment: CYP17 inhibition assay in rat testicular microsomes; assay type: biochemical; conditions: 3H3-17α-hydroxypregnenolone substrate, 60 minutes at 37° C.
T1 construct: Rat testis tissue was collected and disrupted with 30 strokes of a glass homogenizer; from tissue; host or cells: rat testis (microsomal fraction)
T1 sequence (P11715 1-507): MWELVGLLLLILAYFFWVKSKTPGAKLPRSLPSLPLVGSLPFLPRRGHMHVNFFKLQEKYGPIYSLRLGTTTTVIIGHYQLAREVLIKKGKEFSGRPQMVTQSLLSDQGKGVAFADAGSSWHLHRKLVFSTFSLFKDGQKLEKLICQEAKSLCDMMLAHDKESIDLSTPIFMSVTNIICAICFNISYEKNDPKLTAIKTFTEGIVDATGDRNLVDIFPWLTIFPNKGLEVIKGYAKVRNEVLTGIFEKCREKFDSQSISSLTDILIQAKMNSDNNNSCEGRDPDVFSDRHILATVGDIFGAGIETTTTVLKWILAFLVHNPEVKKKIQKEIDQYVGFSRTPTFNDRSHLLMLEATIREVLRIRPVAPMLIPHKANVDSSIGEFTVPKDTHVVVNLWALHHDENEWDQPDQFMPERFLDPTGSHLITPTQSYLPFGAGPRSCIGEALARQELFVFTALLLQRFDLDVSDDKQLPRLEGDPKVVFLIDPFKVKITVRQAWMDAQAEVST
Description: CYP17 Inhibition Assay in Rat Testicular Microsomes (Rat CYP17) or Yeast Microsome Overexpressing Human CYP17
A. Materials • 1. NADPH (Sigma): A working stock was prepared by adding 25 μL of 6.5 mM NADPH in each tube. The final concentration of NADPH used in the assay was 325 μM. • 2. Potassium Phosphate Buffer: One molar (1M) solutions of K2HPO4 and KH2PO4 were prepared. Eight mL of the 1 M KH2PO4 and 1.98 mL of the 1 M K2HPO4 were combined and the pH was adjusted to 7.4. • 3. ^3H3-17α-hydroxypregnenolone (American Radiolabeled Chemicals, Inc., stock 1 μCi/μL): A 1:1 dilution of ^3H3-17α-hydroxypregnenolone in ethanol was prepared by combining 100 μL ^3H3-17α-hydroxypregnenolone+100 μL ethanol for one complete 96 well plate. For the reaction, 2 μL of the diluted ^3H3-17α-hydroxypregnenolone was added in each tube, i.e., 1 μCi/reaction. • 4. Microsome Isolation Buffer: The microsome isolation buffer was prepared by combining 250 mM Sucrose, 5 mM EDTA, 10 mM Tris HCl, 4 mM DTT, and adjusting to pH 7.4. • 5. TEG Buffer: The TEG buffer was prepared by combining 50 mM Tris HCl, 1 mM EDTA, and 20% Glycerol. • 6. Rat Testicular Microsomes: Rat testis tissue was collected and disrupted with 30 strokes of a glass homogenizer on ice with 250 μL of microsome isolation buffer, followed by centrifugation at 10,000 g for 10 minutes at 4° C. The supernatant was collected and centrifuged at 100,000 g for 45 minutes at 4° C. The pellet was dissolved in TEG Buffer and the protein was quantified. The homogenized microsome samples were then frozen at −80° C. • 7. Yeast Microsomes which overexpress the human CYP17 enzyme were obtained from Premas Biotech, India.
Potassium phosphate buffer (470 μL) was prepared as described above and was added to each well of a deep well plate. The test compound was diluted using a TECAN liquid handler and 5 μL of diluted compound was transferred to each well (96 deep well/1 mL). A solution (25 μL) of 6.5 mM NADPH was added (final concentration of 325 µM in the assay). ^3H3-17α-hydroxypregnenolone (2 μL of the working stock) was added to each tube. The plates were then pre-incubated for 15 minutes at 37° C. Following the pre-incubation, either 5 μL rat testicular microsomes (150-160 μg) or 5 μL of yeast microsomes expressing human CYP17 (1.7 pmol), was added. Incubation was at 37° C. for 60 minutes in the presence of oxygen. The plates were then placed in ice and chloroform (500 μL) was added, mixed well and incubated at 4° C. for 20 minutes. The plates were then centrifuged at 1000 rpm for 15 minutes at 4° C.
A portion (300 μL) of the aqueous solution was collected and mixed with a 5% aqueous suspension of activated charcoal (300 μL). The plates were then incubated at 4° C. for 30 minutes, after which the plates were centrifuged at 1000 rpm for 15 minutes at 4° C. From this, 125 μL of the aqueous solution was collected and plated into a 96 well plate. Microscint™ 40 [125 μL, Perkin-Elmer; containing a mixture of a polymer based on alkylphenolethoxylate (20-40%), diethanolamine-phosphoric acid ester ammonium salt (10-20%), sodium dioctyl sulphosuccinate (2.5-10%), triethyl phosphate (2.5-10%), 3,6-dimethyl-4-octyne-3,6-diol (≦2.5%), a polymer based on nonylphenolethoxylate (≦2.5%), diisopropyl naphthalene isomers (40-60%), 2,5-diphenyloxazole (≦2.5%), and 9,10-dimethylanthracene] was added and mixed well. After 30 minutes of incubation, the samples were analyzed with a MicroBeta® Trilux microplate liquid scintillation counter and luminometer (Perkin-Elmer).

IC50 [nM] | SMILES
< 50 | CCC(c1ccc(-c2ccc(NC(C)=O)cc2)cn1)n1ccnc1 (stereo not drawn) [Example 43, N-{4-[6-(1-Imidazol-1-yl-propyl)-pyridin-3-yl]-phenyl}-acetamide]
< 50 | CC(c1ccc(-c2ccc(F)cc2)nc1)n1ccnc1 (stereo not drawn) [Example 54, 2-(4-Fluoro-phenyl)-5-(1-imidazol-1-yl-ethyl)-pyridine]
< 50 | CCC(c1ccc(-c2ccccc2F)cn1)n1ccnc1 (stereo not drawn) [Example 48, 5-(2-Fluoro-phenyl)-2-(1-imidazol-1-yl-propyl)-pyridine]
< 50 | CCC(c1ccc(-c2ccc(CO)cc2)cn1)n1ccnc1 (stereo not drawn) [Example 41, {4-[6-(1-Imidazol-1-yl-propyl)-pyridin-3-yl]-phenyl}-methanol]
< 50 | CCC(c1ccc(-c2ccc(OC)cc2)s1)n1ccnc1 (stereo not drawn) [Example 3, 1-(1-(5-(4-methoxyphenyl)thiophen-2-yl)propyl)-1H-imidazole]
< 50 | COc1ccc(-c2ccc(C(CC(C)C)n3ccnc3)s2)cc1 (stereo not drawn) [Example 39, 1-{1-[5-(4-Methoxy-phenyl)-thiophen-2-yl]-3-methyl-butyl}-1H-imidazole]
< 50 | CCC(c1ccc(-c2cccc(F)c2)cn1)n1ccnc1 (stereo not drawn) [Example 45, 5-(3-Fluoro-phenyl)-2-(1-imidazol-1-yl-propyl)-pyridine]
201 to 10000 | CC(c1cnc(-c2ccc(=O)[nH]c2)s1)n1ccnc1 (stereo not drawn) [Example 63, 5-[5-(1-Imidazol-1-yl-ethyl)-thiazol-2-yl]-1H-pyridin-2-one]
< 50 | CC(c1ccc(-c2ccccc2F)cn1)n1ccnc1 (stereo not drawn) [Example 40, 5-(2-Fluoro-phenyl)-2-(1-imidazol-1-yl-ethyl)-pyridine]
< 50 | CC(c1ccc(-c2ccoc2)cn1)n1ccnc1 (stereo not drawn) [Example 13, 2-(1-(1H-imidazol-1-yl)ethyl)-5-(furan-3-yl)pyridine]
< 50 | CC(c1ccc(-c2ccc(O)cc2)cn1)n1ccnc1 (stereo not drawn) [Example 16, 4-(6-(1-(1H-imidazol-1-yl)ethyl)pyridin-3-yl)phenol]
< 50 | CC(C)CC(c1ccc(-c2ccc(O)cc2)s1)n1ccnc1 (stereo not drawn) [Example 23, 4-(5-(1-(1H-imidazol-1-yl)-3-methylbutyl)-thiophen-2-yl)phenol]
< 50 | CC(c1ccc(-c2cccc(F)c2)cn1)n1ccnc1 (stereo not drawn) [Example 57, 5-(3-Fluoro-phenyl)-2-(1-imidazol-1-yl-ethyl)-pyridine]
50 to 200 | COc1ccc(-c2cccnc2C(C)n2ccnc2)cc1 (stereo not drawn) [Example 66, 2-(1-(1H-imidazol-1-yl)ethyl)-3-(4-methoxyphenyl)-pyridine]
< 50 | COc1ccc(-c2ccc(C(C)n3ccnc3)s2)cc1 (stereo not drawn) [Example 36, 1-{1-[5-(4-Methoxy-phenyl)-thiophen-2-yl]-ethyl}-1H-imidazole]
< 50 | CCC(c1ccc(-c2ccc(C(N)=O)cc2)cn1)n1ccnc1 (stereo not drawn) [Example 10, 4-(6-(1-(1H-imidazol-1-yl)propyl)pyridin-3-yl)benzamide]
< 50 | CCOC(=O)c1ccc(-c2ncc(C(C)n3ccnc3)s2)cc1 (stereo not drawn) [Example 55, 4-[5-(1-Imidazol-1-yl-ethyl)-thiazol-2-yl]-benzoic acid ethyl ester]

IC50 [nM] | SMILES
< 50 | CCC(c1cnc(-c2ccc(F)cc2)s1)n1ccnc1 (stereo not drawn) [Example 33, 2-(4-Fluoro-phenyl)-5-(1-imidazol-1-yl-propyl)-thiazole]
< 50 | CCC(c1ccc(-c2cccc(C#N)c2)cn1)n1ccnc1 (stereo not drawn) [Example 53, 3-[6-(1-Imidazol-1-yl-propyl)-pyridin-3-yl]-benzonitrile]
50 to 200 | CCC(c1cnc(-c2ccc(=O)[nH]c2)s1)n1ccnc1 (stereo not drawn) [Example 59, 5-[5-(1-Imidazol-1-yl-propyl)-thiazol-2-yl]-1H-pyridin-2-one]
< 50 | CCC(c1ccc(-c2ccccc2C#N)cn1)n1ccnc1 (stereo not drawn) [Example 18, 2-(6-(1-(1H-imidazol-1-yl)propyl)pyridin-3-yl)benzonitrile]
< 50 | CC(C)(c1ccc(-c2ccc(O)cc2)cn1)n1ccnc1 [Example 52, 4-[6-(1-Imidazol-1-yl-1-methyl-ethyl)-pyridin-3-yl]-phenol]
50 to 200 | COc1ccc(-c2ccc(C(C)(C)n3ccnc3)nc2)cc1 [Example 61, 2-(1-Imidazol-1-yl-1-methyl-ethyl)-5-(4-methoxy-phenyl)-pyridine]
< 50 | CCC(c1cnc(-c2cccc(F)c2)s1)n1ccnc1 (stereo not drawn) [Example 1, 5-(1-(1H-imidazol-1-yl)propyl)-2-(3-fluorophenyl)thiazole]
201 to 10000 | CC(=O)Nc1ccc(-c2ccc(C(C)n3ccnc3)nc2)cc1 (stereo not drawn) [Example 64, N-{4-[6-(1-Imidazol-1-yl-ethyl)-pyridin-3-yl]-phenyl}-acetamide]
50 to 200 | CCC(c1ccc(-c2ccc(COCOC)cc2)cn1)n1ccnc1 (stereo not drawn) [Example 11, 2-(1-(1H-imidazol-1-yl)propyl)-5-(4-((methoxymethoxy)methyl)-phenyl)pyridine]
50 to 200 | CC(c1ccc(-c2ccc(N)cc2)cn1)n1ccnc1 (stereo not drawn) [Example 14, 4-(6-(1-(1H-imidazol-1-yl)ethyl)pyridin-3-yl)aniline]
< 50 | CCc1cc(F)ccc1-c1ncc(C(CC)n2ccnc2)s1 (stereo not drawn) [Example 46, 2-(2-Ethyl-4-fluoro-phenyl)-5-(1-imidazol-1-yl-propyl)-thiazole]
50 to 200 | COc1ccc(-c2ccc(C(CC(C)C)n3ccnc3)nc2)cc1 (stereo not drawn) [Example 62, 2-(1-Imidazol-1-yl-3-methyl-butyl)-5-(4-methoxy-phenyl)-pyridine]
< 50 | CCC(c1ccc(-c2ccc(O)cc2)s1)n1ccnc1 (stereo not drawn) [Example 4, 4-(5-(1-(1H-imidazol-1-yl)propyl)thiophen-2-yl)phenol]
< 50 | CCC(c1ccc(-c2ccc(C#N)cc2)cn1)n1ccnc1 (stereo not drawn) [Example 17, 4-[6-(1-Imidazol-1-yl-propyl)-pyridin-3-yl]-benzonitrile]
50 to 200 | CCOC(=O)c1ccc(-c2ccc(C(CC)n3ccnc3)nc2)cc1 (stereo not drawn) [Example 5, Ethyl 4-(6-(1-(1H-imidazol-1-yl)propyl)pyridin-3-yl)benzoate]
< 50 | CCC(c1nnc(-c2ccc(F)cc2)s1)n1ccnc1 (stereo not drawn) [Example 19, 2-(1-(1H-imidazol-1-yl)propyl)-5-(4-fluorophenyl)-1,3,4-thiadiazole]

SMILES | IC50 [nM]
CC(c1ccc(-c2ccc(F)cc2)cn1)n1ccnc1 (stereo not drawn) [Example 34, 5-(4-Fluoro-phenyl)-2-(1-imidazol-1-yl-ethyl)-pyridine] | < 50
CC(c1ccc(-c2ccc(F)cc2)cn1)n1ccnc1 (stereo not drawn) [Example 12, 2-(1-(1H-imidazol-1-yl)ethyl)-5-(4-fluorophenyl)pyridine] | < 50
CC(c1cnc(-c2ccc(C#N)cc2)s1)n1ccnc1 (stereo not drawn) [Example 22, 4-(5-(1-(1H-imidazol-1-yl)ethyl)thiazol-2-yl)benzonitrile] | < 50
